In this assay the target is Complement factor D (Homo sapiens, UniProt P00746). Nature of the assay: Human Factor D Assay. How it is done: Human Factor D (purified from human serum, Complement Technology, Inc.) at 80 nM final concentration is incubated with test compound at various concentrations for 5 min at room temperature in 50 mM Tris, 1M NaCl, pH 7.5. A synthetic substrate Z-L-Lys-SBzl and DTNB (Ellman's reagent) are added to final concentrations of 100 μM each. Absorbance at 405 nm (A405) is recorded at 30 second intervals for 30 min using a microplate spectrophotometer. IC50 values are calculated by nonlinear regression of complement Factor D reaction rates as a function of test compound concentration.
Sequence of Complement factor D (P00746 whole entry): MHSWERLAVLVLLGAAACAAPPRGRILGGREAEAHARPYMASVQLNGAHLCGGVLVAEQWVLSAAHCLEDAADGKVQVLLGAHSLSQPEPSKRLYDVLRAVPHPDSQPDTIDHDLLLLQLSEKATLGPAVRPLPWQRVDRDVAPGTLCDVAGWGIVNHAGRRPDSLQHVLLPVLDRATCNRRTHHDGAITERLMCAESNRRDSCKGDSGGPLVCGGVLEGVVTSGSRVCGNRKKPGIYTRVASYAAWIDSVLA

The values below come from BindingDB's records for patent US11708351 (Achillion Pharmaceuticals, 2023).

Broadly, the IC50 is the midpoint of a concentration-inhibition curve. Lower therefore signals greater potency in that assay. `CC(=O)c1nn(CC(=O)N2[C@@H](C(=O)Nc3nc(Br)ccc3C)C[C@@]3(C)C[C@@H]23)c2ccc(-c3cnc(C)nc3)cc12` [US11708351, Compound 279] gave an IC50 above 10 µM.
